Results from EPA's ToxValDB 9.5 (doi:10.2903/j.efsa.2020.6058).
Converted amounts (≈) assume the structure as drawn.

Columns and labels:
Apis mellifera = conditions: acute; oral; unspecified; mortality
Anas platyrhynchos = conditions: chronic/long-term
Tagia sp. = conditions: chronic/long-term; reproduction
Serinus canaria = conditions: acute; oral; unspecified; mortality
Mus musculus = conditions: acute; oral; M; mortality
Bibionidae = conditions: chronic/long-term; duration: 28 days; development
Neomysis kadiakensis = conditions: chronic/long-term; duration: 28 days; development
Rattus norvegicus = conditions: clinical signs
Hypoaspis aculeifer = conditions: chronic/long-term; reproduction
Typhlodromus pyri = test: LR50; higher = less toxic; conditions: not reported; mortality

SMILES: CC1(C)C(C=C(Cl)Cl)[C@@H]1C(=O)O[C@@H](C#N)c1ccc(F)c(Oc2ccccc2)c1 (stereo partly drawn) [beta-Cyfluthrin]
- LD50 (Apis mellifera): 0.05 µg/piece
- NOAEL (Anas platyrhynchos): 2.6 mg/kg-day
- NOEC (Tagia sp.): 0.825 mg/kg
- LD50 (Serinus canaria): 170 mg/kg-day
- LD50 (Mus musculus): 91 mg/kg-day
- NOEC (Bibionidae): 0.0057 µg/L
- NOEC (Neomysis kadiakensis): 0.00041 µg/L
- NOAEL (Rattus norvegicus; reproduction developmental): 1.39 mg/kg-day
- NOAEL (Rattus norvegicus; short-term, duration: 28 days): 1 mg/kg-day
- NOAEL (Rattus norvegicus; subchronic, duration: 13 weeks, inhalation): 0.02 mg/kg-day
- NOEC (Hypoaspis aculeifer): 0.97 mg/kg
- LC50 (Oncorhynchus mykiss; acute, mortality): 0.068 ng/mL (≈ 0.157 nM)
- NOEC (Oncorhynchus mykiss; chronic/long-term, duration: 58 days, growth): 0.0042 µg/L
- LR50 (Typhlodromus pyri): 0.0025 g/ha
